“Also recorded” adds a separate entry of the source.
Tests used:
[1] = tested on: POMC (Rb deficient) tumours in POMC-Cre/POMC-Luc;Rb-flox/flox compound mutant mice; details: doxorubicin 5 mg/kg intravenously once a week for four weeks; in the combination, roscovitine 500 mg/kg orally twice daily for two days before each doxorubicin
Source text: A conditional mouse model for retinoblastoma-dependent sporadic cancer was generated (Vooijs et al; Cancer Res 2002 Mar 15; 62(6): 1862-7; 2002) which permits non-invasive monitoring of pituitary tumour development in live animals via in vivo bioluminescence imaging of luciferase expression. This mouse model permits the longitudinal monitoring of tumour onset, progression and response to therapeutic agents that specifically target the retinoblastoma pathway. By way of summary, a retinoblastoma conditional KO line was crossed with a POMC-Cre/POMC-Luciferase transgenic line to generate POMC-Cre/POMC-Luc;Rb-flox/flox compound mutant mice. These mice develop POMC (Rb deficient) tumours (Vooijs et al, ibid) and as illustrated in FIG. 3.
In this study, doxorubicin was administered once a week for four weeks (5 mg/kg; intravenously).

[2] = tested on: SK-UT-1 cells; assay: Flow cytometry DNA cell cycle analysis; format: cell-based, human; details: 48 h treatment
[3] = tested on: osteosarcoma line SaOS-2 (pRb-deficient); details: pRb-deficient SaOS-2, in combination with doxorubicin; not seen in SaOS-2 transfected with Rb; cited from earlier work

| SMILES | tumour response (bioluminescence) [1] | % of total, G1 [2] [%] | % of total, G2M [2] [%] | % of total, Go [2] [%] | % of total, S [2] [%] | sensitisation to the cytotoxic effects of doxorubicin [3] |
| --- | --- | --- | --- | --- | --- | --- |
| COc1cccc2c1C(=O)c1c(O)c3c(c(O)c1C2=O)C[C@@](O)(C(=O)CO)C[C@@H]3O[C@H]1C[C@H](N)[C@H](O)[C@H](C)O1 [Doxo] | delay tumorigenesis; also recorded: temporarily halts tumour progression | 9 | 43 | 22 | 18 |  |
| CC[C@H](CO)Nc1nc(NCc2ccccc2)c2ncn(C(C)C)c2n1 [Roscovitine, 6-benzylamino-2-[(R)-1-ethyl-2-hydroxyethylamino]-9-isopropylpurine] |  | 36 | 19 | 23 | 16 |  |
| CN1CC[C@H](c2c(O)cc(O)c3c(=O)cc(-c4ccccc4Cl)oc23)[C@H](O)C1 [flavopiridol] |  |  |  |  |  | significantly sensitised |
